Data set [1] concerns the target T1, C-C chemokine receptor type 2 (Homo sapiens, UniProt P41597). Description: Inhibition of [125I]MCP1 binding to CCR2 expressed in CHO cells. The format is cell-based.
Target sequence in this assay (P41597 whole entry): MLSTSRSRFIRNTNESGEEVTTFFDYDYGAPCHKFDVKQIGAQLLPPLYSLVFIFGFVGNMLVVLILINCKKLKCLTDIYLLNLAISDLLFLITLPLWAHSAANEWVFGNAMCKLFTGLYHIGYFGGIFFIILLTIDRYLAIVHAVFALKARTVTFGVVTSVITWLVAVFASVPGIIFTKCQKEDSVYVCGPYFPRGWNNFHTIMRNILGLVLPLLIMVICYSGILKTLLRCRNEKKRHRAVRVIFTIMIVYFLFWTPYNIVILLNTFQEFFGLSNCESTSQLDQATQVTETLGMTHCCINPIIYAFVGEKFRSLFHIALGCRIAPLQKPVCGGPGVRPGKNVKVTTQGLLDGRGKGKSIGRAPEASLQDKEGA
The test system of data set [2] is Monocyte. Description: Inhibition of MCP1-stimulated chemotaxis of human monocyte. The format is functional, cell-based.
For data set [3], the target named is T1, C-C chemokine receptor type 2. Description: Inhibition of [125I]MCP1 binding to CCR2 expressed in CHO cells at 1 uM. It counts as cell-based.
Target sequence in this assay (P41597 whole entry, looked up): as the sequence (P41597 whole entry) above
For data set [4], the target named is Substance-P receptor (Homo sapiens, UniProt P25103). Nature of the data set: Inhibition of NK1.
Sequence of Substance-P receptor (P25103 whole entry): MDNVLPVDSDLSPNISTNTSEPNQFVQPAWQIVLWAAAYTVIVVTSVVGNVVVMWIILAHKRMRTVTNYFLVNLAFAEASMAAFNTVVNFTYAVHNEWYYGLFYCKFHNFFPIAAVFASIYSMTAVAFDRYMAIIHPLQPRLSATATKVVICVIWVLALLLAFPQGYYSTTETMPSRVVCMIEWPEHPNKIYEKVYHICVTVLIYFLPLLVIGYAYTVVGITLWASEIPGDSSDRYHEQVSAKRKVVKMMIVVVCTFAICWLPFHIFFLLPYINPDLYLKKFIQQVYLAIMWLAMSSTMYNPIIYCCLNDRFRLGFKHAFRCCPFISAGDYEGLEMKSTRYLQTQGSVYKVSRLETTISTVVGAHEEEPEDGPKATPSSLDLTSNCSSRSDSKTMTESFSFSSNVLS
Data set [5] deals with T2, C-C chemokine receptor type 5 (Homo sapiens, UniProt P51681). Nature of the data set: Inhibition of CCR5 at 0.01 uM.
Target sequence in this assay (P51681 whole entry, looked up): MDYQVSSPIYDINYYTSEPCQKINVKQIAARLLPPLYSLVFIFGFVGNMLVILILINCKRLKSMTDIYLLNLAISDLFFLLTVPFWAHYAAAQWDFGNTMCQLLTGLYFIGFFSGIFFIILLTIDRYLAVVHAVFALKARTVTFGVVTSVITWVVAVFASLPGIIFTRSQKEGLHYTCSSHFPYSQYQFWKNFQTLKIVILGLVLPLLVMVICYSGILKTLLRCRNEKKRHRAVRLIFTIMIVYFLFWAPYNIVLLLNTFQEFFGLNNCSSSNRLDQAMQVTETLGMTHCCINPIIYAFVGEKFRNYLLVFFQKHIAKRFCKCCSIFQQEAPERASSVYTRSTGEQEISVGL
A short description of data set [6]: Half life in rat at 3 mg/kg. It counts as ADME, organism-based. On the set-up: dose 3 mg/kg. The following applies: in vivo.
The nature of data set [7]: Oral bioavailability in rat at 3 mg/kg. It counts as ADME, organism-based. The following applies: in vivo.
A short description of data set [8]: Plasma clearance in rat at 3 mg/kg. It counts as ADME, organism-based. Details: dose 3 mg/kg.
The target in data set [9] is T2, C-C chemokine receptor type 5. Description: Inhibition of CCR5.
Target sequence in this assay (P51681 whole entry): as the sequence (P51681 whole entry, looked up) above
The subject of data set [10] is Monocyte. Description: Inhibition of MCP1-stimulated chemotaxis of human monocyte at 1 uM. It counts as functional.

As to `C[C@@H]1CN(CC[C@H](C(=O)NCc2cc(C(F)(F)F)cc(C(F)(F)F)c2)c2ccc(F)cc2)CC[C@]12C=Cc1ccccc12`, the half-maximal inhibitory concentration (IC50) (in general, the midpoint of a concentration-inhibition curve) in [1] amounted to 120 nM; in data set [2], 62 nM.
For `O=C(NCc1cc(C(F)(F)F)cc(C(F)(F)F)c1)[C@@H](CCN1CCCC(c2ccccc2)CC1)c1ccc(F)cc1` (stereo not given in full), the inhibition – broadly, the change of the read-out against control, counted positive when it falls – in data set [3] stood at 3%.
With `C[C@H]1CN(CC[C@H](C(=O)NCc2cc(C(F)(F)F)cc(C(F)(F)F)c2)c2ccc(F)cc2)CC[C@@]12C=Cc1ccccc12`, the figures for the IC50 in data set [4], in [1] and in [2] were 28 nM, 59 nM and 41 nM, respectively. The compound also registered an inhibition in [5] of 26%.
In turn, `O=C(NCc1cc(C(F)(F)F)cc(C(F)(F)F)c1)[C@@H](CCN1CC(c2ccccc2)C1)c1ccc(F)cc1` yielded an inhibition in [3] of 18%.
For `O=C(NCc1cc(C(F)(F)F)cc(C(F)(F)F)c1)[C@H](CCN1CCC(c2ccccc2)CC1)c1ccc(F)cc1`, in data set [1], the 50% inhibitory concentration (IC50) amounted to 930 nM.
Same read-out and setting: with `CN(C)CCN[C@H](C(=O)NCc1cc(C(F)(F)F)cc(C(F)(F)F)c1)c1ccc(F)cc1` the figure was 720 nM.
The same measure, in the same setting: with `CCC1CN(CC[C@H](C(=O)NCc2cc(C(F)(F)F)cc(C(F)(F)F)c2)c2ccc(F)cc2)CCC12C=Cc1ccccc12` (stereo not given in full) the figure was 440 nM; with `O=C(NCc1cc(C(F)(F)F)cc(C(F)(F)F)c1)[C@@H](CCN1CCC2(CCc3ccccc32)CC1)c1ccc(F)cc1`, 320 nM; with `CC1CN(CC[C@H](C(=O)NCc2cc(C(F)(F)F)cc(C(F)(F)F)c2)c2ccc(F)cc2)CCC12C=Cc1ccccc12` (stereo not given in full), 45 nM.
`O=C(NCc1cc(C(F)(F)F)cc(C(F)(F)F)c1)[C@@H](CCN1CCC2(C=Cc3ccccc32)CC1)c1ccc(F)cc1`: in [6], the half-life – broadly, how long it takes for the measured level to halve – is 8 h. Besides, the bioavailability (commonly dose-corrected exposure relative to a reference, in per cent) in [7] worked out at 38%. Moreover, the concentration for half-maximal inhibition (IC50) in data set [4] was found to be 50 nM; in data set [1], 80 nM; in data set [9], 30 nM; in data set [2], 176 nM. Besides, in [8], the clearance (usually the volume of plasma or blood freed of the substance per unit of time) worked out at 6 mL/min/kg.
Consider `CC1CN(CC[C@H](C(=O)NCc2cc(C(F)(F)F)cc(C(F)(F)F)c2)c2ccc(F)cc2)CCN1c1ccccc1` (stereo not given in full), for which the concentration for half-maximal inhibition (IC50) in data set [1] was 780 nM.
The compound `CC(CN1CCC(c2ccccc2)CC1)[C@H](CNCc1cc(C(F)(F)F)cc(C(F)(F)F)c1)c1ccc(F)cc1` (stereo not given in full) displayed an inhibition in data set [3] of 0%.
`C[C@](CCN1CCC(c2ccccc2)CC1)(CNCc1cc(C(F)(F)F)cc(C(F)(F)F)c1)c1ccc(F)cc1` registered a half-inhibitory concentration (IC50) in [1] of 1070 nM.
Still for that read-out and setting: next, `O=C(NCc1cc(C(F)(F)F)cc(C(F)(F)F)c1)[C@@H](CCCN1CCC(c2ccccc2)CC1)c1ccc(F)cc1`: 1100 nM.
Consider `O=C(NCc1cc(C(F)(F)F)cc(C(F)(F)F)c1)[C@@H](CCN1CCC(C2CCCCC2)CC1)c1ccc(F)cc1`, for which, in data set [3], the inhibition is 20%.
On the same count and under the same terms, next, `C=CCN1CCC(N(CC[C@H](C(=O)NCc2cc(C(F)(F)F)cc(C(F)(F)F)c2)c2ccc(F)cc2)C(=O)OCc2ccccc2)CC1`: 14%.
Regarding `O=C(NCc1cc(C(F)(F)F)cc(C(F)(F)F)c1)[C@@H](CCCN1CCCCC1)c1ccc(F)cc1`, in data set [1], the 50% inhibitory concentration (IC50) was found to be 1000 nM.
On the same count and under the same terms, next, `O=C(NCc1cc(C(F)(F)F)cc(C(F)(F)F)c1)[C@@H](CCN1CCC(c2ccsc2)CC1)c1ccc(F)cc1`: 160 nM.
`O=C(NCc1cc(C(F)(F)F)cc(C(F)(F)F)c1)[C@@H](CCN1CCCC(Cc2ccccc2)C1)c1ccc(F)cc1` (stereo not given in full) gave an inhibition in data set [3] of 43%.
The same measure, in the same setting: with `O=C(NCc1cc(C(F)(F)F)cc(C(F)(F)F)c1)[C@@H](CCN1CC[C@@H]2c3ccccc3CC[C@H]2C1)c1ccc(F)cc1` the figure was 6%.
Compound `C[C@@H]1CN(CC[C@H](CNCc2cc(C(F)(F)F)cc(C(F)(F)F)c2)c2ccc(F)cc2)CC[C@@H]1c1ccccc1` showed a half-inhibitory concentration (IC50) in [1] of 700 nM.
`O=C(NCc1cc(C(F)(F)F)cc(C(F)(F)F)c1)[C@@H](CCN1CCN(c2ccccc2)CC1)c1ccc(F)cc1` yielded an inhibition in data set [3] of 11%.
In data set [3], `O=C(NCc1cc(C(F)(F)F)cc(C(F)(F)F)c1)[C@@H](CCN1CCC(c2ccccc2)C1)c1ccc(F)cc1` (stereo not given in full) returned an inhibition of 44%.
Take `O=C(NCc1cc(C(F)(F)F)cc(C(F)(F)F)c1)[C@@H](CCN1CCCCC1)c1ccc(F)cc1`: the IC50 in data set [1] was 1100 nM.
The same measure, in the same setting: next, `CC(C[C@H](C(=O)NCc1cc(C(F)(F)F)cc(C(F)(F)F)c1)c1ccc(F)cc1)N1CCC(c2ccccc2)CC1` (stereo not given in full): 1500 nM.
For the compound `O=C(NCc1cc(C(F)(F)F)cc(C(F)(F)F)c1)[C@@H](CCN1CCC(c2ccccc2)CC1)c1ccc(F)cc1`, the IC50 in data set [4] came out at 24 nM; in data set [1], 150 nM; in data set [9], 72 nM. Besides, at 1 µM the inhibition in data set [10] was 40%.
For `C[C@H]1CN(CC[C@H](CNCc2cc(C(F)(F)F)cc(C(F)(F)F)c2)c2ccc(F)cc2)CC[C@@H]1c1ccccc1`, the IC50 in [1] stood at 140 nM.

The values above are taken from ChEMBL document CHEMBL1146856, “Novel, orally bioavailable gamma-aminoamide CC chemokine receptor 2 (CCR2) antagonists” (J Med Chem, 2006).
